Experimental data: EP2681209B1, “COMPOUNDS AND METHODS FOR THE TREATMENT OF PAIN AND OTHER DISORDERS” (Aquilus Pharmaceuticals, Inc, priority 2011, dated 2012)
Entries after “also recorded” stand apart in the source; their conditions may differ.

What was measured:
CD-1 mice = assay: Naloxone-precipitated morphine withdrawal mouse study, intrathecal administration; format: in vivo; conditions: i.t. 10 µl/mouse every 8 hours for 2.5 days with escalating IP morphine; naloxone 1 mg/kg s.c.; compared to control and vehicle
Source text: One can measure the effects of intrathecal (i.t.) or intraparitoneal (i.p.) administration of a matrix metallorproteinase (MMP) inhibitor in a mouse model of morphine analgesia, tolerance and withdrawal. The purpose of which is to measure the effects of a MMP inhibitor on 1) attenuating morphine tolerance in mice and 2) withdrawal behavior in naloxone-precipitated morphine withdrawal in mice. The animal model which was developed in the 1960's and refined in the early 1970's utilizes the opioid antagonist, naloxone to rapidly block the µ-opioid receptor to "precipitate" withdrawal behavior in rodents (Zachariou, V. et al.; Essential role for RGS9 in opiate action, PNAS, 100(23), p 13656-13661, (2003)). […]
Drug Administration & Morphine withdrawal Studies: The matrix metalloproteinase (MMP) inhibitors were dissolved in phosphate buffered saline (PBS) and dimethylsulfoxide (DMSO) and diluted in PBS (final concentration of DMSO for intrathecal administration was 10%). […] Two hours after the last morphine injection, naloxone (1 mg/kg) was administered s.c. Withdrawal behaviors were then monitored for 30 min, 1 hr after the naloxone injection. […]
MMP inhibitor effects on morphine withdrawal For testing the morphine withdrawal-like behavioral signs following intrathecal MMP inhibitor administration, the withdrawal symptoms were monitored for 30 minutes 1-2 h after naloxone administration. […]

[1] = In-vitro microsomal stability in human microsomes; format: in vitro ADME; conditions: 1 µM compound, human microsomes 0.3 mg/mL
Protocol: Human and mouse microsomal stability was determined for select compounds following the method of Houston (Houston, JB; Biochem. Pharmacol. 47, (1994),1469).
1 µM concentration of compound and seperate human and mouse microsomes (0.3 mg/mL, BD bioscience) were used in the in-vitro assay. To ensure proper energy supply for microsomal degradation of compound, an energy regenerating system comprised of 100 mM potassium phosphate, 2mM NADPH, 3mM MgCl2, pH = 7.4. and the microsomal protein is added to each sample and the resulting suspension is then incubated in duplicate for 60 min at 37° C. in a rotary shaker. A control is run for each test agent in duplicate omitting NADPH to detect NADPH-free degradation. At T=0 and T= 60 min., an aliquot is removed from each experimental and control reaction and then mixed with an equal volume of ice-cold Stop Solution (consisting of 0.3% acetic acid in acetonitrile containing haloperidol and diclofenac as internal standards). […] The samples are then centrifuged to remove precipitated protein, and the supernatants are then analyzed by LC-MS/MS to determine the percentage of compound remaining. […] After separation on a C18 reverse phase HPLC column (Agilent, Waters, or equivalent) using an acetonitrile-water gradient system, peaks were analyzed by mass spectrometry (MS) using ESI ionization in MRM mode.

Compound | morphine withdrawal behavior (behavioral signs, overall opiate withdrawal score) (CD-1 mice) | Mean Remaining Parent with NADPH (%) ([1]; 60 min at 37° C) | Mean Remaining Parent without NADPH (%) ([1]; control omitting NADPH, at T = 60 minutes)
[2H]C([2H])([2H])c1ccc(C#Cc2ccc(S(=O)(=O)N[C@H](Cc3c[nH]c4ccccc34)C(=O)O)s2)cc1 [Compound 10, (R)-3-(1H-Indol-3-yl)-2-[5-(4-trideuteromethyl-phenylethynyl)-thiophene-2-sulfonylamino]-propionic acid-(D3, 98%)] | able to reduce overall morphine withdrawal behavior; also recorded: significantly attenuates behavioral signs of naloxone-precipitated morphine withdrawal | – | –
Cc1ccc(C#Cc2ccc(S(=O)(=O)N[C@H](Cc3c[nH]c4ccccc34)C(=O)O)s2)cc1 [Compound 5, (R)-3-(1H-Indol-3-yl)-2-(5-p-tolylethynyl-thiophene-2-sulfonylamino)-propionic acid] | – | 86% | 89%
